{"source": "patent US10413512B2", "about": "“Nicotine-containing granulate” (priority 2008, dated 2019)", "origin": "cited, not measured here", "key": {"[1]": {"settings": "oral administration"}, "[2]": {"settings": "in vivo"}, "[3]": {"settings": "base form"}}, "data": [{"compound": "CN1CCC[C@H]1c1cccnc1", "note": "[Nicotine, (S)-3-(1-Methyl-2-pyrrolidinyl)pyridine]", "values": [{"measurement": "oral bioavailability", "setting": "[1]", "value": "about 30%"}, {"measurement": "half life in the body", "setting": "[2]", "value": "around two"}, {"measurement": "miscibility with water", "setting": "[3]", "value": "miscible with water"}]}]}
